From patent US20260078103A1, “ISOQUINOLONES AS PI3K INHIBITORS” (OnKure, Inc., priority 2022, published 2026)
Where two headings read alike, the source gives them in different places.

Assays:
Format in all cases: cell-based
[1] = system: phosphorylation of AKT (pAKT) in SKBR3 cells express WT PI3Ka; experiment: In vitro cell pAKT (Ser473) HTRF, SKBR3 cells; details: cellular pAKT
Summary of the method: (§1)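 pAKT (Ser473) was quantified by HTRF in lysates from cells exposed 6 h at 37 °C to 10-point compound series, with T47D in insulin-supplemented RPMI/10% FBS and SKBR3 in McCoy's 5a/10% FBS. Controls: 0.1% DMSO (high) and 10 uM alpelisib (low). IC50 from sigmoidal curve fitting.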

[2] = system: SKBR3 cells express WT PI3Ka; experiment: In vitro cell proliferation, SKBR3 cells (CellTiter-Glo); details: inhibition of proliferation
Summary of the method: (§2)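 Proliferation was read by CellTiter-Glo luminescence after 72 h of exposure to 10-point compound dilutions at 37 °C and 5% CO2. T47D (RPMI, 10% FBS, insulin 0.2 units/mL) and SKBR3 (McCoys 5a, 10% FBS) cells were seeded at 1,500 cells/well. EC50 was fitted from inhibition relative to DMSO and 10 uM Alpelisib.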

[3] = system: T47D cells expressing mutant PI3Ka (H1047R); experiment: In vitro cell proliferation, T47D cells (CellTiter-Glo); details: inhibition of proliferation, read-out: Avg T-47D EC50
Summary of the method: as §2

[4] = system: phosphorylation of AKT (pAKT) in T47D cells expressing mutant PI3Ka (H1047R); experiment: In vitro cell pAKT (Ser473) HTRF, T47D cells; details: cellular pAKT, T47D cells, mutant PI3Ka (H1047R), 6 hours, read-out: Avg T-47D IC50
Summary of the method: as §1

Cc1ncc(N2CCN(c3cc4c([C@@H](C)Nc5cccc(F)c5C(=O)O)cc(F)cc4c(=O)n3C)CC2)s1 [Example 477] showed an IC50 ([1]; Homo sapiens, SK-BR-3, 6 h) of 2 to 15 µM, an EC50 ([2]; Homo sapiens, SK-BR-3, 72 h) greater than 15 µM and an EC50 ([3]; Homo sapiens, T47D, 72 h) of 1 to 500 nM. It also gave an IC50 ([4]; Homo sapiens, T47D, 6 h) of 1 to 500 nM.

C[C@@H](Nc1ccccc1C(=O)O)c1cc(F)cc2c(=O)n(C)c(C3C[C@@H]3C3CC3)cc12 (single isomer, unassigned) [Example 450] was tested, and the IC50 ([1]; 6 hours) was greater than 15 µM, the EC50 ([2]; 72 hours) was greater than 15 µM and the EC50 ([3]; 72 hours) was 1 to 500 nM. For the same molecule, the IC50 [4] was 1 to 500 nM.

Cc1cc([C@@H](C)Nc2ccc(Cl)nc2C(=O)O)c2cc(-c3ccc(C)nc3)n(C)c(=O)c2c1 [Example 130] gave an IC50 ([1]; Homo sapiens, SK-BR-3, 6 h) of 2 to 15 µM, an EC50 ([2]; Homo sapiens, SK-BR-3, 72 h) of 2 to 15 µM and an EC50 ([3]; Homo sapiens, T47D, 72 h) of 1 to 500 nM. The IC50 ([4]; Homo sapiens, T47D, 6 h) was 1 to 500 nM.

In the case of COc1ccc(N2CCN(c3cc4c([C@@H](C)Nc5ccccc5C(=O)O)cc(C)cc4c(=O)n3C)CC2)cn1 [Example 218], the IC50 ([1]; Homo sapiens, SK-BR-3, 6 h) is reported as 2 to 15 µM, the EC50 ([2]; Homo sapiens, SK-BR-3, 72 h) is reported as 2 to 15 µM and the EC50 ([3]; Homo sapiens, T47D, 72 h) is reported as 1 to 500 nM. It also gave an IC50 ([4]; Homo sapiens, T47D, 6 h) of 1 to 500 nM.

With Cc1cc(N2CCN(c3cc4c([C@@H](C)Nc5ccccc5C(=O)O)cc(F)cc4c(=O)n3C)CC2)on1 [Example 512] the IC50 ([1]; Homo sapiens, SK-BR-3, 6 h) was 2 to 15 µM, the EC50 ([2]; Homo sapiens, SK-BR-3, 72 h) was 2 to 15 µM and the EC50 ([3]; Homo sapiens, T47D, 72 h) was 1 to 500 nM. The IC50 ([4]; Homo sapiens, T47D, 6 h) was 1 to 500 nM.

Molecule C[C@@H](Nc1ccccc1C(=O)O)c1cc(F)cc2c(=O)n(C)c(-c3cnc(OC4CC4)c(F)c3)cc12 [Example 458] has an IC50 ([1]; Homo sapiens, SK-BR-3, 6 h) greater than 15 µM, an EC50 ([2]; Homo sapiens, SK-BR-3, 72 h) greater than 15 µM and an EC50 ([3]; Homo sapiens, T47D, 72 h) of 1 to 500 nM. It also gave an IC50 ([4]; Homo sapiens, T47D, 6 h) of 1 to 500 nM.

Work on COc1ncc(-c2cc3c([C@@H](C)Nc4ccccc4C(=O)O)cc(C)cc3c(=O)n2C)cc1F [Example 246] yielded an IC50 ([1]; Homo sapiens, SK-BR-3, 6 h) greater than 15 µM, an EC50 ([2]; Homo sapiens, SK-BR-3, 72 h) greater than 15 µM and an EC50 ([3]; Homo sapiens, T47D, 72 h) of 2000 to 15000 nM. It also gave an IC50 ([4]; Homo sapiens, T47D, 6 h) of 2000 to 15000 nM.

Cc1cc([C@@H](C)Nc2ccccc2C(=O)O)c2cc(N3CC[C@@]4(CCCN(CC(F)(F)F)C4)C3)n(C)c(=O)c2c1 [Example 98] gave an IC50 ([1]; Homo sapiens, SK-BR-3, 6 h) greater than 15 µM, an EC50 ([2]; Homo sapiens, SK-BR-3, 72 h) greater than 15 µM and an EC50 ([3]; Homo sapiens, T47D, 72 h) of 500 to 2000 nM. For the same molecule, the IC50 ([4]; Homo sapiens, T47D, 6 h) was 1 to 500 nM.

For Cc1cc([C@@H](C)Nc2ccccc2C(=O)O)c2cc(N3CCOCC3)n(C)c(=O)c2c1 [Example 249], the IC50 ([1]; Homo sapiens, SK-BR-3, 6 h) was greater than 15 µM, the EC50 ([2]; Homo sapiens, SK-BR-3, 72 h) was greater than 15 µM and the EC50 ([3]; Homo sapiens, T47D, 72 h) was 1 to 500 nM. For the same molecule, the IC50 ([4]; Homo sapiens, T47D, 6 h) was 1 to 500 nM.

Molecule Cc1cc([C@@H](C)Nc2ccccc2C(=O)O)c2cc(-c3cnc(CC(F)(F)F)cn3)n(C)c(=O)c2c1 [Example 422] has an IC50 ([1]; Homo sapiens, SK-BR-3, 6 h) greater than 15 µM, an EC50 ([2]; Homo sapiens, SK-BR-3, 72 h) greater than 15 µM and an EC50 ([3]; Homo sapiens, T47D, 72 h) of 1 to 500 nM. For the same molecule, the IC50 ([4]; Homo sapiens, T47D, 6 h) was 1 to 500 nM.

For Cc1cc(C(C)Nc2ccccc2C(=O)O)c2cc(N3CCC4(CCCC4)CC3)n(C)c(=O)c2c1 (stereo not drawn) [Example 62], the IC50 ([1]; Homo sapiens, SK-BR-3, 6 h) was greater than 15 µM, the EC50 ([2]; Homo sapiens, SK-BR-3, 72 h) was greater than 15 µM and the EC50 ([3]; Homo sapiens, T47D, 72 h) was 500 to 2000 nM. For the same molecule, the IC50 ([4]; Homo sapiens, T47D, 6 h) was 500 to 2000 nM.

Molecule Cc1cc([C@@H](C)Nc2ccccc2C(=O)O)c2cc(-c3ccc(C(C)C)nc3)n(C)c(=O)c2c1 [Example 226] has an IC50 ([1]; Homo sapiens, SK-BR-3, 6 h) greater than 15 µM, an EC50 ([2]; Homo sapiens, SK-BR-3, 72 h) greater than 15 µM and an EC50 ([3]; Homo sapiens, T47D, 72 h) of 1 to 500 nM. For the same molecule, the IC50 ([4]; Homo sapiens, T47D, 6 h) was 1 to 500 nM.

For Cc1cc([C@@H](C)Nc2ccccc2C(=O)O)c2cc(N3CC(c4ccccn4)C3)n(C)c(=O)c2c1 [Example 152], the IC50 ([1]; Homo sapiens, SK-BR-3, 6 h) was greater than 15 µM, the EC50 ([2]; Homo sapiens, SK-BR-3, 72 h) was greater than 15 µM and the EC50 ([3]; Homo sapiens, T47D, 72 h) was 500 to 2000 nM. For the same molecule, the IC50 ([4]; Homo sapiens, T47D, 6 h) was 1 to 500 nM.

Molecule Cc1cc([C@@H](C)Nc2ccccc2C(=O)O)c2cc(-c3cnc(C)c(C)c3)n(C)c(=O)c2c1 [Example 210] has an IC50 ([1]; Homo sapiens, SK-BR-3, 6 h) greater than 15 µM, an EC50 ([2]; Homo sapiens, SK-BR-3, 72 h) greater than 15 µM and an EC50 ([3]; Homo sapiens, T47D, 72 h) of 500 to 2000 nM. It also gave an IC50 ([4]; Homo sapiens, T47D, 6 h) of 1 to 500 nM.

Work on Cc1cc(C(C)Nc2ccccc2C(=O)O)c2cc(N3CCC4(CCN(CC(F)(F)F)CC4)CC3)n(C)c(=O)c2c1 (single isomer, unassigned) [Example 111] yielded an IC50 ([1]; 6 hours) of 2 to 15 µM, an EC50 ([2]; 72 hours) of 2 to 15 µM and an EC50 ([3]; 72 hours) of 1 to 500 nM. For the same molecule, the IC50 [4] was 1 to 500 nM.

With Cc1cc([C@@H](C)Nc2ccccc2C(=O)O)c2cc(N3CCN(c4cccnc4C)CC3)n(C)c(=O)c2c1 [Example 206] the IC50 ([1]; Homo sapiens, SK-BR-3, 6 h) was 0.5 to 2 µM, the EC50 ([2]; Homo sapiens, SK-BR-3, 72 h) was 2 to 15 µM and the EC50 ([3]; Homo sapiens, T47D, 72 h) was 1 to 500 nM. It also gave an IC50 ([4]; Homo sapiens, T47D, 6 h) of 1 to 500 nM.

Cc1cc(C(C)Nc2ccccc2C(=O)O)c2cc(N3CCN4CCC[C@H]4C3)n(C)c(=O)c2c1 (single isomer, unassigned) [Example 138] showed an IC50 ([1]; Homo sapiens, SK-BR-3, 6 h) greater than 15 µM, an EC50 ([2]; Homo sapiens, SK-BR-3, 72 h) greater than 15 µM and an EC50 ([3]; 72 hours) greater than 15000 nM. The IC50 [4] was greater than 15000 nM.

Cc1cc(C(C)Nc2ccccc2C(=O)O)c2cc(N3CCC4(CCOCC4)CC3)n(C)c(=O)c2c1 (single isomer, unassigned) [Example 166] gave an IC50 ([1]; 6 hours) greater than 15 µM, an EC50 ([2]; 72 hours) greater than 15 µM and an EC50 ([3]; 72 hours) of 2000 to 15000 nM. It also gave an IC50 [4] of 2000 to 15000 nM.
